Laboratory results as given in patent US9302014B2, “Cell-penetrating peptides having a central hydrophobic domain” (Medical Research Council, priority 2011, dated 2016).
Where two headings read alike, the source gives them in different places. Non-standard residues stand in square brackets, D forms with d. No end group written: not given here. Ahx = NCCCCCC(=O)O; βAla = NCCC(=O)O

Assays:
dystrophin [1] = settings: intramuscular or intravenous delivery in mdx mice; cited from earlier work
dystrophin [2] = test: Immunohistochemical staining and quantification of dystrophin in mdx mice after single IV injection; format: in vivo; settings: 8 week old mdx mice, single 12.5 mg/kg IV, 2 weeks after injection
Text: Given the potency of Pip5e-PMO in heart tissue, the aim of altering the sequence of the hydrophobic core (whilst maintaining the 5-aa length) was to identify peptides that might be more efficient at lower doses. These modifications included inversion of the hydrophobic region (Pip6a), substitution of tyrosine by isoleucine (Pip6b), substitution of glutamine in the Pip6a sequence by displacement of the arginine immediately flanking the core in the first arginine-rich flanking region (Pip6e), and a scrambled hydrophobic core sequence (Pip6f). All Pip6 peptide-PMO conjugates were administered to mdx mice as single 12.5 mg/kg intravenous injections via the tail vein and tissues were harvested 2 weeks later and assessed for activity at both RNA and protein levels.
Immunohistochemical staining quantification (FIGS. 34a, b) was performed as previously described [Malerba, A., et al., Chronic systemic therapy with low-dose morpholino oligomers ameliorates the pathology and normalizes locomotor behavior in mdx mice. Mol Ther, 2011. 19(2): p. 345-54; Arechavala-Gomeza, V., et al., Immunohistological intensity measurements as a tool to assess sarcolemma-associated protein expression. Neuropathol Appl Neurobiol, 2010. 36(4): p. 265-74.] and was achieved by taking 4 representative frames of the dystrophin staining and correlating this with laminin staining for each section (n=3) of the quadriceps, diaphragm and heart for each peptide-PMO treatment. Untreated mdx and treated mdx mice were normalised to C57BL10 mice. This method allows comparison of the staining intensity of dystrophin at the sarcolemma relative to laminin for each treatment group. Intensity ratios are normalised to C57BL10 samples and each region of interest at the sarcolemma (120 regions for each treatment group) is plotted on a scatter graph. […]
Transverse sections of tissue samples were cut (8 μm thick) for the examination of dystrophin expression. For dystrophin visualisation and quantification, sections were co-stained with rabbit-anti-dystrophin (Abcam) and rat anti-laminin (Sigma), and detected by goat-anti-rabbit IgG Alexa 594 and goat-anti-rat IgG 488 secondary antibodies respectively (Invitrogen). […] Quantitative immunohistochemistry was performed as previously described [Malerba, A., et al., Chronic systemic therapy with low-dose morpholino oligomers ameliorates the pathology and normalizes locomotor behavior in mdx mice. […] For quantification, 4 representative frames of the dystrophin and correlating laminin were taken for each section (n=3) of the quadriceps, diaphragm and heart for each treatment. […] The minimum and maximum fluorescence intensity for 120 regions were recorded for each treatment. […]

dystrophin exon 23 = test: Exon skipping in differentiated mouse H2K mdx myotubes (nested RT-PCR, densitometry); format: cell-based; settings: Example 5, conjugate 0.125 to 2.0 μM, no transfection agent
Method: The exon skipping potential of Pip6-PMO conjugates was evaluated in differentiated mouse H2K mdx myotubes in the absence of any transfection agent (FIG. 1) at concentrations ranging from 0.125 μM to 1 μM. […] In the case of Pip6 sequences, the flanking arginine-rich sequences are identical (with the exception of Pip6e, which is identical except for one arginine immediately preceding the core which is displaced into the second position of the core). […] Note that we have previously shown that major changes in in vitro exon skipping activities are correlated instead with the total numbers of arginine residues [Saleh, A. F., et al., Synthesis and splice-redirecting activity of branched, arginine-rich peptide dendrimer conjugates of peptide nucleic acid oligonucleotides. Bioconjug Chem, 2010. 21(10): p. 1902-11.].
H2K mdx myotubes are derived from H2K mdx myoblasts obtained from the EDL muscle of a male H2K mdx f2 mouse. The cells are dystrophin deficient and conditionally immortal due to thermolabile simian virus 40 large tumor antigen (tsA58) expression. The myoblasts proliferate at 33° C. (10% CO2) in rich culture and differentiate into myotubes at 37° C. in media with horse serum.
H2K mdx myotubes were prepared and incubated with peptide-PNA and peptide-PMO conjugates in the absence of any transfection agent by the methods described previously (Wang, Q, Yin, H, et aL (2010) In vitro evaluation of novel antisense oligonucleotides is predictive of in vivo exon skipping activity for Duchenne muscular dystrophy) but with minor variations.
Myotubes were obtained from confluent H2K mdx cells seeded in gelatine coated 24-well plates following 2 days of serum deprivation (DMEM with 5% horse serum). The conjugates were incubated with myotubes for 4 h in 0.5 mL OptiMEM and then replaced by 1 mL of DMEM/5% horse serum media for further incubation. After 20 h myotubes were washed twice with PBS and total RNA was extracted with 0.5 mL of TRI Reagent (Sigma, UK). RNA preparations were treated with RNAse free DNAse (2U) and Proteinase K ([…]) prior to RT-PCR analysis. RT-PCR was carried out in 25 μL with 1 μg RNA template using SuperScript III One-Step RTPCR System with Platinum Taq DNA polymerase (Invitrogen) primed by forward primer 5′CAG AAT TCT GCC AAT TGC TGAG3′ [SEQ ID NO:312] and reverse primer 5′TTC TTC AGC TTG TGT CAT CC3′ [SEQ ID NO:313]. The initial cDNA synthesis was performed at 55° C. for 30 min followed by 30 cycles of 95° C. for 30 sec, 55° C. for 1 min and 68° C. for 80 sec. RT PCR product ([…]) was then used as the template for secondary PCR performed in 25 μL with 0.5 U Super TAQ polymerase (HT Biotechnologies) and primed by forward primer 5′CCCAGTCTACCACCCTATCAG AGC3′ [SEQ ID NO:314] and reverse primer 5′CCT GCC TTT AAG GCT TCC TT3′ [SEQ ID NO:315]. The cycling conditions were 95° C. for 1 min, 57° C. for 1 min and 72° C. for 80 sec for 25 cycles. Products were examined by 2% agarose gel and after scanning using Gene Tools Analysis Software (SynGene) the relative amount of exon 23 skipping was expressed as a percentage at a given concentration of conjugates averaged over duplicates of three experiments.
H2K mdx myotubes were prepared and incubated with peptide-PMO conjugates in the absence of any transfection agent at concentrations of 0.125, 0.25, 0.5 and 1.0 μM by the method described previously [Yin, H., et al., Pip5 transduction peptides direct high efficiency oligonucleotide-mediated dystrophin exon skipping in heart and phenotypic correction in mdx mice. Mol Ther, 2011. 19(7): p. 1295-303.]. The products of nested RT-PCR from total isolated RNA were examined by electrophoresis on a 2% agarose gel. Quantification of Δ23 transcript levels was calculated using densitometry. […]

[3] = mice; cited from earlier work
[4] = monkeys; cited from earlier work

Substance	exon skipping and dystrophin production compared to naked PMODMD (dystrophin [1])	dystrophin expression in the heart (dystrophin [2])	exon skipping activity (Δ23 skipping) in mdx muscle cells (dystrophin exon 23)	well tolerated dosage [3] [mg/kg]	well tolerated dosage [4] [mg/kg]
RXRRBRRXRRBRXB (R[Ahx]RR[βAla]RR[Ahx]RR[βAla]R[Ahx][βAla]; also: conjugated to PMO (PMODMD)) [B peptide]	significantly enhance exon skipping and dystrophin production				
Pip9d: Pip9 series peptide (SEQ ID Nos 320-328) conjugated to PMODMD (R[Ahx]RR[βAla]RFQILY[βAla]R[βAla]R[βAla]; also: conjugated to PMO (PMODMD))		negligible dystrophin production	high exon skipping activity		
Pip8c2: Pip8 series peptide (SEQ ID NOs:17-20) conjugated to PMODMD (R[Ahx]RR[βAla]RYQFLIRR[βAla]R[βAla]; also: conjugated to PMO (PMODMD))		negligible dystrophin production	high exon skipping activity		
Exon-skipping PMO: phosphorodiamidate morpholino oligonucleotide for exon skipping, unconjugated, from cited toxicology studies (GGCCAAACCTCGGCTTACCTGAAAT; all phosphorodiamidate morpholino (PMO))				≤ 960	≤ 320
